The values that follow come from the C3SDB collision cross section collection.

For the series the following is noted: instrument: DT, stepped-field.

Regarding `CCCCCCCCCCCCC=CC[C@@H](O)[C@H](CO[C@@H]1O[C@H](CO)[C@@H](O)C(O)C1O)NC(=O)CCCCCCCCCCCCCCCCCCCCC` (stereo not given in full) [GlcCer(40:01)], the “collision cross section (N2)” value is 292.56 Å² ([M+Cl]-); 292.77 Å² ([M+H-H2O]+); 298.16 Å² ([M+HCOO]-); 293.87 Å² ([M+H]+); 296.15 Å² ([M+Na]+).

For the compound `CCCCCCCCCCCCC=CC[C@@H](O)[C@H](CO[C@@H]1O[C@H](CO)[C@@H](O)C(O)C1O)NC(=O)CC=CCCCCCCCCCCCCCCCCCC` (stereo not given in full) [GlcCer(40:02)], the “collision cross section (N2)” value is, setting by setting: ([M+H-H2O]+) 290.36 Å²; ([M+H]+) 293.98 Å²; ([M+Na]+) 292.09 Å².

In the case of `CCCCCCCCCCCCC=CC[C@@H](O)[C@H](CO[C@@H]1O[C@H](CO)[C@@H](O)C(O)C1O)NC(=O)CCCCCCCCCCCCCCCCCCCCCC` (stereo not given in full) [GlcCer(41:01)], the “collision cross section (N2)” value ([M+H-H2O]+) was determined as 294.63 Å², the “collision cross section (N2)” value ([M+H]+) is 297.12 Å² and the “collision cross section (N2)” value ([M+Na]+) is on record as 297.42 Å².

With `CCCCCCCCCCCCC=CC[C@@H](O)[C@H](CO[C@@H]1O[C@H](CO)[C@@H](O)C(O)C1O)NC(=O)CCCCCCCCCCCCCCCCCCCCCCC` (stereo not given in full) [GlcCer(42:01)], the “collision cross section (N2)” value runs as follows: ([M+Cl]-) 298.88 Å²; ([M+H-H2O]+) 298.36 Å²; ([M+HCOO]-) 302.85 Å²; ([M+H]+) 300.59 Å²; ([M+Na]+) 301.76 Å².

For `CCCCCCCCCCCCC=CC[C@@H](O)[C@H](CO[C@@H]1O[C@H](CO)[C@@H](O)C(O)C1O)NC(=O)CC=CCCCCCCCCCCCCCCCCCCCCC` (stereo not given in full) [GlcCer(43:02)], the “collision cross section (N2)” value is, setting by setting: ([M+H]+) 302.04 Å²; ([M+Na]+) 302.4 Å².

`CCCCCCCCCCCCC=CC[C@@H](O)[C@H](CO[C@@H]1O[C@H](CO)[C@@H](O)C(O)C1O)NC(=O)CCCCCCCCCCCCCCCCCCCCCCCCC` (stereo not given in full) [GlcCer(44:01)]: the “collision cross section (N2)” value is, setting by setting: ([M+H]+) 306.44 Å²; ([M+Na]+) 307.93 Å².

Regarding `CCCCCCCCCCCCC=CC[C@@H](O)[C@H](CO[C@@H]1O[C@H](CO)[C@@H](O)C(O)C1O)NC(=O)CC=CCCCCCCCCCCCCCCCCCCCCCC` (stereo not given in full) [GlcCer(44:02)], the “collision cross section (N2)” value is recorded as 301.46 Å² ([M+H-H2O]+), 305.11 Å² ([M+H]+) and 306.31 Å² ([M+Na]+).

With `CCCCCCCCCCCCC=CC[C@@H](O)[C@H](CO[C@@H]1O[C@H](CO)[C@@H](O)C(O)C1O)NC(=O)CC=CCC=CCCCCCCCCCCCCCCCCCCC` (stereo not given in full) [GlcCer(44:03)], for the setting “[M+Na]+”, the “collision cross section (N2)” value was found to be 303.93 Å².

Regarding `CCCCCCCCCCCCC=CC[C@@H](O)[C@H](CO[C@@H]1O[C@H](CO)[C@@H](O)C(O)C1O)NC(=O)CC=CCC=CCCCCCCCCCCCCCCCCCCCCCC` (stereo not given in full) [GlcCer(47:03)], the “collision cross section (N2)” value ([M+H-2H2O]+) is listed as 307.66 Å².

For the compound `CCCCCCCCCCCCCCCCCCCCCCCCCCCCCCC(=O)N[C@@H](CO[C@@H]1O[C@H](CO)[C@@H](O)C(O)C1O)[C@H](O)CCCCCCCCCCCCCCC` (stereo not given in full) [GlcCer(49:00)], the “collision cross section (N2)” value ([M+Na-2H2O]+) turned out to be 318.7 Å².

`CCCCCCCCCC/C=C\CCCCCCCCCC(=O)O[C@H](COC(=O)CCCCCCCCCCCC)COP(=O)(O)O` [PA(35:01)]: the “collision cross section (N2)” value ([M+2Na-H]+) is listed as 271.84 Å².

For the compound `CCCCCCCC/C=C\CCCCCCCC(=O)O[C@H](COC(=O)CCCCCCCCCCCCCCCCC)COP(=O)(O)O` [PA(36:01)], the “collision cross section (N2)” value reads like this: ([M+2Na-H]+) 274.66 Å²; ([M+Na]+) 273.4 Å².

On to `CCCC/C=C\CCCCCCCC(=O)OC[C@H](COP(=O)(O)O)OC(=O)CCCCCCCCC/C=C\CCCCCCCCCC` [PA(36:02)], for which the “collision cross section (N2)” value is, setting by setting: ([M+2Na-H]+) 273.1 Å²; ([M+Na]+) 272.25 Å².

Turning to `CCCCC/C=C\C/C=C\C/C=C\C/C=C\CCCC(=O)O[C@H](COC(=O)CCCCCCCCCCCCCCC)COP(=O)(O)O` [PA(36:04)], the “collision cross section (N2)” value reads like this: ([M+2Na-H]+) 270.03 Å²; ([M+Na]+) 268.39 Å².

`CCCCC/C=C\C/C=C\CCCCCCCCCC(=O)O[C@H](COC(=O)CCCCCCC/C=C\C/C=C\CCCCC)COP(=O)(O)O` [PA(38:04)]: the “collision cross section (N2)” value is reported as 276.1 Å² ([M+2Na-H]+) and 276.54 Å² ([M+Na]+).

As to `CCCCCC/C=C/CCCCCCCCCC(=O)O[C@H](COC(=O)CCCCCCCCCCCCCCC)COP(=O)([O-])OCC[N+](C)(C)C` [PC(34:01)], the “collision cross section (N2)” value reads like this: ([M+2Na-H]+) 283.9 Å²; ([M+Cl]-) 290.47 Å²; ([M+HCOO]-) 290.79 Å²; ([M+H]+) 281.97 Å²; ([M+K]+) 285.76 Å²; ([M+Na]+) 284.83 Å².

For the compound `CCCCC/C=C\C/C=C\CCCCCCCCCCCC(=O)O[C@H](COC(=O)CCCCCCCCCCCC)COP(=O)([O-])OCC[N+](C)(C)C` [PC(35:02)], the “collision cross section (N2)” value ([M+Na]+) came to 285.81 Å².

Turning to `CCCCC/C=C\C/C=C\CCCC/C=C\CCCC(=O)O[C@H](COC(=O)CCCCCCCCCCCCCCCCC)COP(=O)([O-])OCC[N+](C)(C)C` [PC(38:03)], the “collision cross section (N2)” value reads like this: ([M+Cl]-) 299.51 Å²; ([M+Na]+) 293.06 Å².

In the case of `CC/C=C\C/C=C\C/C=C\C/C=C\C/C=C\CCCC(=O)O[C@H](COC(=O)CCCCCCC/C=C\CCCCCCCC)COP(=O)([O-])OCC[N+](C)(C)C` [PC(38:06)], the “collision cross section (N2)” value turned out to be 296.13 Å² ([M+Cl]-) and 295.99 Å² ([M+HCOO]-).

`CC/C=C/C=C\C=C/C=C\C=C/C=C\CCCCCCCC(=O)O[C@H](COC(=O)CCCCCCCCCCCCCCCCC)COP(=O)([O-])OCC[N+](C)(C)C` [PC(40:06)]: the “collision cross section (N2)” value ([M+Na]+) stood at 294.42 Å².

Regarding `CCCCCCCC/C=C\CCCCCCCCCC(=O)O[C@H](COC(=O)CCCCCCCCCCC)COP(=O)(O)OCCN` [PE(32:01)], the “collision cross section (N2)” value by setting is: ([M+2Na-H]+) 268.9 Å²; ([M+Na]+) 268.62 Å².

`CCCCCC/C=C\CCCCCCCCCC(=O)O[C@H](COC(=O)CCCCCCCCCCCCCCC)COP(=O)(O)OCCN` [PE(34:01)]: the “collision cross section (N2)” value amounted to 275.64 Å² ([M+2Na-H]+); 270.06 Å² ([M+H]+); 277.57 Å² ([M+K]+); 276.03 Å² ([M+Na]+); 266.91 Å² ([M-H]-).

For `CCCCC/C=C\C/C=C\CCCCCCCCCCCC(=O)O[C@H](COC(=O)CCCCCCCCCCC)COP(=O)(O)OCCN` [PE(34:02)], the “collision cross section (N2)” value amounted to 273.28 Å² ([M+2Na-H]+); 268.45 Å² ([M+H]+); 274.83 Å² ([M+K]+); 273.06 Å² ([M+Na]+); 265.55 Å² ([M-H]-).

Take `CCCCCCC/C=C\CCCCCCCC(=O)O[C@H](COC(=O)CCCCCCC/C=C\CCCCCCCC)COP(=O)(O)OCCN` [PE(35:02)]: the “collision cross section (N2)” value by setting is: ([M+K]+) 277.37 Å²; ([M+Na]+) 275.61 Å².

Consider `CCCCCCCCCCCCCCCCCCCCC(=O)OC[C@H](COP(=O)(O)OCCN)OC(=O)CCCCCCCCCCCCCC` [PE(36:00)], for which the “collision cross section (N2)” value ([M-H]-) amounted to 274.96 Å².

For `CCCCCC/C=C\CCCCCCCC(=O)OC[C@H](COP(=O)(O)OCCN)OC(=O)CCCCCCCCC/C=C\CCCCCCCC` [PE(36:02)], the “collision cross section (N2)” value was determined as 281.26 Å² ([M+2Na-H]+); 275.13 Å² ([M+H]+); 280.72 Å² ([M+K]+); 279.88 Å² ([M+Na]+); 272.07 Å² ([M-H]-).

As to `CC/C=C\C/C=C\C/C=C\C/C=C\CCCCC(=O)O[C@H](COC(=O)CCCCCCC/C=C\CCCCCCCC)COP(=O)(O)OCCN` [PE(36:05)], the “collision cross section (N2)” value ([M+K]+) was found to be 274.4 Å².

For `CCCCC/C=C\C/C=C\CCCCCCCC(=O)OC[C@H](COP(=O)(O)OCCN)OC(=O)CCCCCCC/C=C\CCCCCCCCC` [PE(37:03)], the “collision cross section (N2)” value by setting is: ([M+2Na-H]+) 282.12 Å²; ([M+Na]+) 280.15 Å².

Regarding `CCCCCCCC/C=C\CCCCCCCCCCCC(=O)O[C@H](COC(=O)CCCCCCCCCCCCCCC)COP(=O)(O)OCCN` [PE(38:01)], the “collision cross section (N2)” value ([M+Na]+) worked out at 285.93 Å².

For `CCCCC/C=C\C/C=C\CCCCCCCCCC(=O)O[C@H](COC(=O)CCCCCCC/C=C\CCCCCCCC)COP(=O)(O)OCCN` [PE(38:03)], the “collision cross section (N2)” value came out at 286.46 Å² ([M+2Na-H]+) and 277.01 Å² ([M-H]-).

Regarding `CC/C=C\C/C=C\C/C=C\C/C=C\CCCCC(=O)OC[C@H](COP(=O)(O)OCCN)OC(=O)CCCCCCCCC/C=C\C/C=C\CCCCC` [PE(38:06)], the “collision cross section (N2)” value turned out to be 281 Å² ([M+2Na-H]+) and 273.81 Å² ([M-H]-).

With `CCCCC/C=C\C/C=C\CCCCCCCC(=O)OC[C@H](COP(=O)(O)OCCN)OC(=O)CCCCCCCCCCCCCCCCCCCC` [PE(39:02)], for the setting “[M+2Na-H]+”, the “collision cross section (N2)” value is listed as 291.84 Å².

With `CCCCC/C=C\C/C=C\C/C=C\C/C=C\CCCCCC(=O)O[C@H](COC(=O)CCCC/C=C\C/C=C\C/C=C\CCCCC)COP(=O)(O)OCCN` [PE(40:07)], the “collision cross section (N2)” value ([M+2Na-H]+) amounted to 286.07 Å².

With `CC/C=C\C/C=C\C/C=C\C/C=C\C/C=C\C/C=C\CCC(=O)O[C@H](COC(=O)CCCCCCCCC/C=C\CCCCCCCC)COP(=O)(O)OCCN` [PE(42:07)], the “collision cross section (N2)” value ([M+K]+) was 291.12 Å².

Regarding `CCCCC/C=C\C/C=C\C/C=C\CCCCC(=O)O[C@H](COCCCCCCCCCCCCCCCC)COP(=O)(O)OCCN` [PE(o34:03)], the “collision cross section (N2)” value runs as follows: ([M+2Na-H]+) 271.58 Å²; ([M+Na]+) 270.85 Å².
